The source of these data is PubChem BioAssay AID179 (DTP/NCI, 2004).

Active and inactive are the calls of the source.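 How the source made its calls: active means compounds giving half or more protection of infected cells from virus-caused growth loss, again on retest; inactive means the rest.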 Where a SMILES comes first, the peptide text is derived from it. The star is where a group is joined. Boc = CC(C)(C)OC(=O)*

The assay relates to CEM cells HIV-1 protection, formazan growth assay. In words: NCI AIDS Antiviral Assay. The note with it: for IC50: measured here: growth of uninfected CEM cells. An outline of the steps: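 Screen of anti-HIV-1 activity in human CEM cells using a formazan-based growth measurement at five drug concentrations. Hits with 50% or greater protection were repeated, and confirmation required reproducible complete protection.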

For `CC(=O)NNc1nc(C)c(C(=O)NNC(=O)C(=O)Nc2c([N+](=O)[O-])ccc(C)c2C)s1`, the EC50 is greater than 209 µM and the half-inhibitory concentration (IC50) amounted to 107 µM.
For the compound `CC(=O)CC(=O)ON(C)C(C)=O`, the EC50 was greater than 1450 µM and the IC50 is greater than 1450 µM.
Regarding `COc1ccc(C2ON(c3ccccc3)CC=C2C)cc1` (stereo unspecified), the EC50 was greater than 35.5 µM and the IC50 is greater than 35.5 µM.
As to `C=CC1(c2ccc(-c3ccccc3)cc2)OCCO1`, the EC50 was greater than 200 µM and the IC50 turned out to be 81.3 µM.
`CC(C)(CCc1nc2ccccc2[nH]1)C(=O)O`: the EC50 was greater than 200 µM and the IC50 is greater than 200 µM.
Consider `CC(=O)OCC1OC(n2cc(C)c(-n3cncn3)nc2=O)CC1N=[N+]=[N-]` (stereo unspecified), for which the EC50 is greater than 200 µM and the IC50 was 11.5 µM.
On to `O=c1ccnc2c1ccc1[nH]cccc12`, for which the EC50 was greater than 1260 µM and the IC50 was found to be 64.6 µM.
On the same counts, the results for `COc1cc(C(O)(CC#N)c2cc3c(cc2Br)OCO3)cc(OC)c1OC` (stereo unspecified) are greater than 200 µM and 10 µM.
On to `CC1(C)C2CCC(CN)(C2)C1O` (stereo unspecified), for which the EC50 is greater than 200 µM and the IC50 is greater than 200 µM.
For the compound `Clc1ccc2nc3occ(Br)c3cc2c1`, the EC50 is greater than 13.2 µM and the IC50 was greater than 13.2 µM.
Consider `c1ccc(C2(c3ccccc3)OCCO2)cc1`, for which the EC50 was greater than 200 µM and the IC50 was greater than 200 µM.
As for `COc1ccc2c(c1)CSC(c1ccccc1)C2=O` (stereo unspecified), the EC50 is greater than 97.7 µM and the IC50 worked out at 55 µM.
On to `Cn1c2ccccc2c2nnc(N/N=C/c3ccccn3)nc21`, for which the EC50 is greater than 200 µM and the IC50 was determined as 0.115 µM.
For the compound `C=CCOc1ccccc1C1(O)c2ccccc2C2=NCCCN21` (stereo unspecified), the EC50 was greater than 200 µM and the IC50 was determined as 40.7 µM.
With `O=C(Nc1ccc(Cl)c(Cl)c1)OCC#CCOC(=O)Nc1ccc(Cl)c(Cl)c1`, the EC50 was greater than 200 µM and the IC50 came out at 8.91 µM.
Consider `Cc1ccc(S(=O)(=O)C2=Cc3ccccc3C2(O)c2ccccc2)cc1` (stereo unspecified), for which the EC50 was greater than 200 µM and the IC50 amounted to 21.4 µM.
Turning to `CC(C)c1c(O[Si](C(C)C)(C(C)C)C(C)C)c2c3c(ccc4c3c1OC4(C)C)C(C)CC2` (stereo unspecified), the EC50 was greater than 200 µM and the IC50 is greater than 200 µM.
For the compound `Cc1cc(NS(=O)(=O)c2ccc(Nc3c4ccccc4nc4c(C(=O)Nc5ccc(S(=O)(=O)N=C(N)N)cc5)cccc34)cc2)no1`, the EC50 is 18.6 µM and the IC50 is 53.7 µM.
On the same counts, the results for `COc1c(O)c2c(=O)cc(OC)c3c4c(OC)cc(=O)c5c(O)c(OC)c6c(c(c1C(C(C)O)C6C(C)O)c23)c54` (stereo unspecified) are greater than 2 µM and 0.339 µM.
The corresponding values for `N#C/C(=C\NC(=S)C(N)=S)c1nc2ccccc2s1` are greater than 200 µM and 5.75 µM.
In the case of `O=C(CCc1cc(O)ccc1O)OCCc1ccccc1`, the EC50 was greater than 20 µM and the IC50 stood at 10.2 µM.
Take `CC(C)NC(=O)OCc1c(COC(=O)NC(C)C)n(C)c2c1ccc1ccccc12`: the EC50 was greater than 174 µM and the IC50 came out at 0.0813 µM.
For `Cc1ccc(S(=O)(=O)CC2CCCn3c2c(C#N)c2ccccc23)cc1` (stereo unspecified), the EC50 is greater than 200 µM and the IC50 was greater than 200 µM.
Take `COc1cc(C[P+](c2ccccc2)(c2ccccc2)c2ccccc2)cc(OC)c1OC`: the EC50 was greater than 479 µM and the IC50 was 33.1 µM.
Turning to `O=C(Nc1ccn(C2CC(O)C(CO)O2)c(=O)n1)c1ccccc1` (stereo unspecified), the EC50 was greater than 200 µM and the IC50 was greater than 200 µM.
Turning to `O=C(c1ccccc1)N1N=C(C(F)(F)F)CC1(O)C(F)(F)F` (stereo unspecified), the EC50 is greater than 200 µM and the IC50 was greater than 200 µM.
In the case of `CC1(C)OCC2OC3OC(C)(C)OC3C(OS(C)(=O)=O)C2O1` (stereo unspecified), the EC50 was greater than 200 µM and the IC50 was greater than 200 µM.
Regarding `O=P1(O)c2ccccc2CCc2ccccc21`, the EC50 is greater than 200 µM and the 50% inhibitory concentration (IC50) was greater than 200 µM.
`Nc1ccc(N)c(N2C(=O)c3ccccc3C2=O)c1`: the EC50 was greater than 200 µM and the IC50 is greater than 200 µM.
With `CCOc1ccc(NC2OC(CO)C(O)C(O)C2NC(C)=O)cc1` (stereo unspecified), the EC50 was greater than 200 µM and the IC50 is greater than 200 µM.
`O=[N+]([O-])c1c(Br)cc(Br)c2c1Nc1c(ccc(Cl)c1Cl)S2`: the EC50 is greater than 200 µM and the concentration for half-maximal inhibition (IC50) is 4.9 µM.
As for `Cc1cc(=O)oc2c1c(C)nn2-c1cccc(Cl)c1`, the EC50 is greater than 95.5 µM and the IC50 was 89.1 µM.
Regarding `CCOC(=O)C(C(=O)OCC)P(=S)(S)c1ccccc1` (stereo unspecified), the EC50 was greater than 4370 µM and the IC50 was greater than 4370 µM.
As to `COC(=O)C1=C(C(=O)NNc2ccccc2)N(c2cccnc2Cl)C(c2ccccc2)=CC1c1ccccc1` (stereo unspecified), the EC50 was greater than 200 µM and the IC50 came out at 22.9 µM.
As to `Cc1ccc(S(=O)(=O)N(C)c2ccccc2)cc1`, the EC50 was greater than 200 µM and the IC50 came out at 52.5 µM.
For the compound `COc1cc(N=CN(C)C)c2ncccc2c1`, the result was inactive.
For `O=C(CC(O)CCc1ccc(O)c(O)c1)O[C@H]1Cc2c(O)cc(O)cc2O[C@H]1c1ccc(O)c(O)c1` (stereo partly specified), the EC50 was greater than 200 µM and the IC50 was 14.1 µM.
With `C/C(=N/OC(=O)N(C)C)c1cccc(Cl)c1`, the EC50 is greater than 200 µM and the IC50 came out at 166 µM.
As to `OC(c1ccccc1)C(F)(F)c1nc2ccccc2o1` (stereo unspecified), the EC50 is greater than 200 µM and the IC50 was greater than 200 µM.
With `CCCCCn1cnc2c(=S)nc(N)[nH]c21`, the EC50 is greater than 200 µM and the half-inhibitory concentration (IC50) was 195 µM.
For `O=C1SC(c2ccc(Cl)cc2)(c2ccc(Cl)cc2)c2ccccc21`, the EC50 was greater than 200 µM and the IC50 was 93.3 µM.
On the same counts, the results for `Cc1cccc(C(O)c2ccccn2)c1O` (stereo unspecified) are greater than 200 µM and greater than 200 µM.
As for `Fc1ccccc1C1SCc2nc3ccccc3n21` (stereo unspecified), the concentration for a half-maximal effect (EC50) is 11 µM and the IC50 stood at 38.9 µM.
On to `Clc1ccc(C(c2ccccc2Cl)C(Cl)Cl)cc1` (stereo unspecified), for which the EC50 is greater than 200 µM and the IC50 worked out at 61.7 µM.
`COc1nc(N)c(N=CC(OC(C)=O)C(OC(C)=O)C(COC(C)=O)OC(C)=O)c(=O)n1C` (stereo unspecified): the EC50 is greater than 200 µM.
In the case of `CCC(C)COC(=O)c1ccc(N=Cc2ccc(C=Nc3ccc(C(=O)OCC(C)CC)cc3)cc2)cc1` (stereo unspecified), the EC50 is greater than 2.82 µM and the IC50 was greater than 2.82 µM.
On to `COc1ccccc1NC(=O)CC(=O)NN`, for which the EC50 is greater than 200 µM and the half-maximal inhibitory concentration (IC50) was greater than 200 µM.
Regarding `COC(=O)C1CCC(=S)N1C(=O)c1ccccc1` (stereo unspecified), the EC50 was greater than 200 µM and the half-inhibitory concentration (IC50) is greater than 200 µM.
Turning to `CC(NC(=O)C(NC(=O)OC(C)(C)C)C(C)C)C(=O)N1CCCC1C(=O)O` (stereo not drawn) (Boc-Val-Ala-Pro-OH; configuration not given here), the EC50 is greater than 200 µM and the IC50 was greater than 200 µM.
For the compound `Cc1ccc(C)c(NC(=O)C(=O)C(c2cnc3ccc([N+](=O)[O-])cc3n2)[N+](=O)[O-])c1` (stereo unspecified), the EC50 was greater than 123 µM and the half-maximal inhibitory concentration (IC50) is greater than 123 µM.
Take `O=C(CCc1ccc(O)c(O)c1)NCCc1ccccc1`: the EC50 is greater than 200 µM and the IC50 is 21.9 µM.
`O=C1c2ccccc2C(=O)c2c1nnn2-c1ccccc1`: the EC50 is greater than 200 µM and the IC50 is 3.55 µM.
Consider `CS(=O)(=O)OCC1OS(=O)OC1COS(C)(=O)=O` (stereo unspecified), for which the EC50 was greater than 200 µM and the IC50 is 4.9 µM.
The corresponding values for `Cc1ccc(S(=O)(=O)/N=C2/N(C)CCCS2(=O)=O)cc1` are greater than 200 µM and greater than 200 µM.
In the case of `C=CCNC(=S)/N=C/C(C(=O)Nc1ccccc1OC)=C(\C)O`, the outcome was inactive.
Turning to `Cc1cc(Cl)c(O)c(C(=O)C(=O)C(O)c2ccc3c(c2)OCO3)c1` (stereo unspecified), the EC50 was greater than 200 µM and the IC50 is 2.45 µM.
In the case of `NC(=O)c1nnc2cc(F)c(F)cc2c1N`, the EC50 is greater than 200 µM and the IC50 is greater than 200 µM.
For `N#CC(C#N)SCc1ccccc1`, the result was inactive.
For `N#CC(C(=O)CCC(=O)Nc1ccc(Cl)c(Cl)c1)c1ccc(Cl)cc1` (stereo unspecified), the EC50 was greater than 331 µM and the IC50 was greater than 331 µM.
On to `CCCCCCCCS(=O)(=O)c1ccc(O)c(C(=O)Nc2ccc(C(F)(F)F)cc2)c1`, for which the EC50 was greater than 40.7 µM and the IC50 was 1.58 µM.
`Cc1c(C(=N)N)oc2ccccc12`: the outcome was inactive.
Take `CCCCCCSSCCCCCC`: the EC50 is greater than 200 µM and the IC50 was greater than 200 µM.
As to `Cc1cc2c(cc1Cl)SSc1cc(Cl)c(C)cc1S(=O)(=O)Nc1nc(N)nn1C(O)n1nc(N)nc1NS2(=O)=O`, the EC50 is 89.1 µM and the half-inhibitory concentration (IC50) was greater than 100 µM.
Regarding `CCC(C)C(NC(=O)CNC(=O)C(C)NC(=O)CNC(=O)C(NC(=O)C(NC(=O)C(CO)NC(=O)C(Cc1cnc[nH]1)NC(=O)C(N)CCCCN)C(C)CC)C(C)CC)C(=O)NC(CCCCN)C(=O)NC(CCCCN)C(=O)NC(CCCN=C(N)N)C(=O)NC(Cc1ccccc1)C(=O)NC(CC(C)C)C(=O)NC(CCC(N)=O)C(=O)O` (stereo unspecified) (H-KHSIIGAGIKKRFLQ-OH; configuration not given here), the outcome was inactive.
`O=C(Nc1ccc([N+](=O)[O-])cc1)N(c1cc(Cl)ccn1)C1CCCCC1`: the EC50 was greater than 200 µM and the IC50 came out at 11 µM.
As for `COc1cccc2c(NNc3ccccc3)c3ccc([N+](=O)[O-])cc3nc12`, the EC50 was greater than 22.4 µM and the IC50 was 16.2 µM.
In the case of `CCc1cccc(C)c1NC(=O)C(=O)Cc1nc2ccccc2s1`, the outcome was inactive.
In the case of `CCOC(=O)c1nc2ccccc2nc1NCc1ccc(Cl)cc1Cl`, the EC50 was greater than 100 µM and the IC50 was determined as 72.4 µM.
On to `O=[N+]([O-])c1nccn1CC(O)CF` (stereo unspecified), for which the EC50 is greater than 468 µM and the 50% inhibitory concentration (IC50) is greater than 468 µM.
Consider `CC(N)C(=O)NC(CO)C(=O)NC(Cc1ccc(O)cc1)C(=O)NC(CO)C(=O)NC(C(=O)O)C(C)O` (stereo unspecified) (H-ASYST-OH; configuration not given here), for which the EC50 is greater than 95.5 µM and the IC50 is greater than 95.5 µM.
`CC(=O)N1CC2Nc3ccccc3C2CC1CO` (stereo unspecified): the outcome was inactive.
As for `Cn1cc([N+](=O)[O-])cc1C(=O)Nc1cc(C(=O)Nc2ccc(S(=O)(=O)O)c3cc(S(=O)(=O)O)ccc23)n(C)c1`, the EC50 is greater than 398 µM and the IC50 stood at 178 µM.

By EC50 is commonly meant the concentration that produces a half-maximal response. One may read the IC50 as the concentration at which inhibition is half-maximal.
